Converted amounts (≈) assume the structure as drawn.

The subject of one series is Spodoptera frugiperda. Description: Antifeedant activity against Spodoptera frugiperda assessed as feeding ratio for 5 seconds. The format is functional.
Series [1] can be described thus: Cytotoxicity against mouse 3PS cells xenografted in mouse at 35 mg/kg relative to control. Type of series: functional.
Series [2] in a line: Toxicity in Artemia salina. Type of series: organism-based. To be noted: in vivo.
The subject of series [3] is Agrobacterium tumefaciens. Description: Antitumor activity against Agrobacterium tumefaciens-induced crown gall tumor assessed as tumor inhibition in potato tubers by potato disk assay relative to control. Type of series: functional.
The nature of series [4]: Cytotoxicity against mouse 3PS cells xenografted in mouse at 30 mg/kg relative to control. Type of series: functional.
The test system of series [5] is Agrobacterium tumefaciens. Description: Effect on Agrobacterium tumefaciens-induced crown gall tumor in potato tubers by potato disk assay relative to control. Type of series: functional.
The nature of series [6]: Cytotoxicity against mouse 3PS cells xenografted in mouse at 18 mg/kg relative to control. Type of series: functional.
The nature of series [7]: Cytotoxicity against mouse 3PS cells xenografted in mouse at 37 mg/kg relative to control. Type of series: functional.

Consider `Oc1cc(O)cc(/C=C/c2ccc(O)c(O)c2)c1` [PICEATANNOL], for which the Ratio with Spodoptera frugiperda stood at 0.38. Further, the T/C in series [1] came to 131%. In series [2], the LC50 is 278 µg/mL (≈ 1140 µM). The “inhibition (INH)” value in series [3] worked out at 17%.
In turn, `Oc1ccc(/C=C/c2cc(O)cc3c2[C@H](c2cc(O)cc(O)c2)[C@@H](c2ccc(O)c(O)c2)O3)cc1` [SCIRPUSIN A] yielded a T/C in series [4] of 103%. Moreover, the Ratio in the series on Spodoptera frugiperda amounted to 1. Further, in series [2], the LC50 came out at 488 µg/mL (≈ 1040 µM). Also, the Activity in series [5] came to 17%.
Take `Oc1cc(O)cc(C2c3c(/C=C/c4ccc(O)c(O)c4)cc(O)cc3OC2c2ccc(O)c(O)c2)c1` (centres undefined) [SCIRPUSIN B]: in the series on Spodoptera frugiperda, the Ratio is 0.23. The molecule further gave an LC50 in series [2] of 389 µg/mL (≈ 800 µM). In series [6], this molecule had a T/C of 99%. In series [3], the “inhibition (INH)” value came out at 40%.
`Oc1ccc(/C=C/c2cc(O)cc(O)c2)cc1` [RESVERATROL] registered a T/C in series [7] of 100%. In addition, in series [5], the Activity was found to be 39%.

For orientation: T/C means the ratio of treated to control. One may read the LC50 as the concentration lethal to half of the exposed cells or organisms. Low readings indicate greater toxicity, high ones lower toxicity.

The values are drawn from ChEMBL document CHEMBL1150713, “Bioactive stilbenes of Scirpus maritimus” (J Nat Prod, 1987).
